Measured values from paper PMC4178217, “Quinoline 3-sulfonamides inhibit lactate dehydrogenase A and reverse aerobic glycolysis in cancer cells” (Cancer & Metabolism, 2013).
Like-named read-outs stand apart in the source and are kept apart here.

Assays:
Adenosine Receptor a2A = Adenosine Receptor a2A (Homo sapiens, UniProt P29274); assay: Adenosine Receptor a2A ANT; conditions: antagonist; read-out: pIC50 Adenosine Receptor a2A ANT (converted)
Text: (§1) ANT = antagonist (pIC50), AG = agonist (pEC50). pIC50 and pEC50 are the negative logarithms10 of IC50 and EC50, respectively. Click here for file

Adrenergic Receptor b2 [1] = target: T1, Adrenergic Receptor b2 (Homo sapiens, UniProt P07550); assay: Adrenergic Receptor b2 AG; conditions: agonist; read-out: pEC50 Adrenergic Receptor b2 AG (converted)
Text: as §1

Adrenergic Receptor b2 [2] = target: T1, Adrenergic Receptor b2; assay: Adrenergic Receptor b2 ANT; conditions: antagonist; read-out: pIC50 Adrenergic Receptor b2 ANT (converted)
Text: as §1

Aurora B Kinase = Aurora B Kinase (Homo sapiens, UniProt Q96GD4); assay: Aurora B Kinase ANT; format: biochemical; conditions: antagonist; read-out: pIC50 Aurora B Kinase ANT (converted)
Text: as §1

[3] = target: Cannabinoid receptor type 2 (Homo sapiens, UniProt P34972); assay: Cannabinoid receptor type 2 AG; conditions: agonist; read-out: pEC50 Cannabinoid receptor type 2 AG (converted)
Text: as §1

Dopamin Receptor D2 = Dopamin Receptor D2 (Homo sapiens, UniProt P14416); assay: Dopamin receptor D2 ANT; conditions: antagonist; read-out: pIC50 Dopamin receptor D2 ANT (converted)
Text: as §1

[4] = target: Lymphocyte-specific Tyrosine Kinase (Homo sapiens, UniProt P06239); assay: Lymphocyte-specific Tyrosine Kinase ANT; format: biochemical; conditions: antagonist; read-out: pIC50 Lymphocyte-specific Tyrosine Kinase ANT (converted)
Text: as §1

Monoamine Oxidase B = Monoamine Oxidase B (Homo sapiens, UniProt P27338); assay: Monoamine Oxidase B ANT; format: biochemical; conditions: antagonist; read-out: pIC50 Monoamine Oxidase B ANT (converted)
Text: as §1

Muscarinic Receptor M1 = target: T2, Muscarinic Receptor M1 (Homo sapiens, UniProt P11229); assay: Muscarinic Receptor M1 ANT; conditions: antagonist; read-out: pIC50 Muscarinic Receptor M1 ANT (converted)
T2 sequence (P11229 1-460): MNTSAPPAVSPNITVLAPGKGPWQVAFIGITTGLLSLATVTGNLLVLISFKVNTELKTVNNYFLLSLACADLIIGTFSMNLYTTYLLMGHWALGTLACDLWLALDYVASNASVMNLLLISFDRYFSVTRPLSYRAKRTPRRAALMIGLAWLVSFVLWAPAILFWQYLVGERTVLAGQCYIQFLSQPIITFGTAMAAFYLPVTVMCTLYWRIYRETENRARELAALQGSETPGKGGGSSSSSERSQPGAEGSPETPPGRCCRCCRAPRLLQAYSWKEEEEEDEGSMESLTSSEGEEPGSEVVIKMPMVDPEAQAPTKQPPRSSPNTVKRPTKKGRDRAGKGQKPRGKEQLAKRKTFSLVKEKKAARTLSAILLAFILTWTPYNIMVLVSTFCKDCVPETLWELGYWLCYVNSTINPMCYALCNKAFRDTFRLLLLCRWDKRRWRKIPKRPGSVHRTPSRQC
Text: as §1

[5] = target: Nicotinic Ach Receptor A1 (Homo sapiens, UniProt P02708+P07510+Q07001); assay: Nicotinic Ach Receptor A1 ANT
Text: as §1

Opioid Receptor m = Opioid Receptor m (Homo sapiens, UniProt P35372); assay: Opioid Receptor m AG; conditions: agonist; read-out: pEC50 Opioid Receptor m AG (converted)
Text: as §1

Pregnane X receptor = Pregnane X receptor (Homo sapiens, UniProt O75469); assay: Pregnane X receptor AG; conditions: agonist; read-out: pEC50 Pregnane X receptor AG (converted)
Text: as §1

Serotonin Receptor 5HT1B = Serotonin Receptor 5HT1B (Homo sapiens, UniProt P28222); assay: Serotonin Receptor 5HT1B ANT; conditions: antagonist; read-out: pIC50 Serotonin Receptor 5HT1B ANT (converted)
Text: as §1

Serotonin Receptor 5HT2C = target: T3, Serotonin Receptor 5HT2C (Homo sapiens, UniProt P28335); assay: Serotonin Receptor 5HT2C ANT; conditions: antagonist; read-out: pIC50 Serotonin Receptor 5HT2C ANT (converted)
T3 sequence (P28335 33-458): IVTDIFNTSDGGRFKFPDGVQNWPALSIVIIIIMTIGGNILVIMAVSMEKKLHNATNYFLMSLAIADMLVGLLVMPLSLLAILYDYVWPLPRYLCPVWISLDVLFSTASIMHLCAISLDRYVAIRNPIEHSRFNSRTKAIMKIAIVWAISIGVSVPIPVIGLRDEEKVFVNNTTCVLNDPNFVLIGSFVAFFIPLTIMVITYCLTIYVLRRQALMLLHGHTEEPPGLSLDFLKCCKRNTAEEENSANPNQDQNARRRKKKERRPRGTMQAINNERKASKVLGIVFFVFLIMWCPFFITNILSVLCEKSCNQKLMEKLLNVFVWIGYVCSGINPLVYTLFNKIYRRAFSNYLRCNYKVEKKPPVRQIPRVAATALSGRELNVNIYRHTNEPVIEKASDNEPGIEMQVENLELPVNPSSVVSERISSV
Text: as §1

Serotonin Receptor 5HT3 = target: T4, Serotonin Receptor 5HT3 (Homo sapiens, UniProt P46098); assay: Serotonin Receptor 5HT3 AG; conditions: agonist; read-out: pEC50 Serotonin Receptor 5HT3 AG (converted)
T4 sequence (P46098 24-478): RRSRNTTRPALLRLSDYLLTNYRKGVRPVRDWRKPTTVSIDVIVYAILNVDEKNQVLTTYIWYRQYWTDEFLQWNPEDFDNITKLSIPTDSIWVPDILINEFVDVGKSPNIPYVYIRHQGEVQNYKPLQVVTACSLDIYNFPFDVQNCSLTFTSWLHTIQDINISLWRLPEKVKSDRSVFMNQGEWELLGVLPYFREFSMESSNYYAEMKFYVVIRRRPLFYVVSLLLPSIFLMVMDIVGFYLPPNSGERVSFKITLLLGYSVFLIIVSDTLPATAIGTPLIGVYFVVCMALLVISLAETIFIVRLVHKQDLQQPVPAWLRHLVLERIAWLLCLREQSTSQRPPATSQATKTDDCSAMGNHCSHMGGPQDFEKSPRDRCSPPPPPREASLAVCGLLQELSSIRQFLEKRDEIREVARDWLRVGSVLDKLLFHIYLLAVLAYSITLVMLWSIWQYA
Text: as §1

Serotonin Transporter = Serotonin Transporter (Homo sapiens, UniProt P31645); assay: Serotonin Transporter ANT; conditions: antagonist; read-out: pIC50 Serotonin Transporter ANT (converted)
Text: as §1

Sodium Channel NaV 1.5 = Sodium Channel NaV 1.5 (Homo sapiens, UniProt Q14524); assay: Sodium Channel NaV 1.5 ANT; conditions: antagonist; read-out: pIC50 Sodium Channel NaV 1.5 ANT (converted)
Text: as §1

T1 sequence (P07550 whole entry): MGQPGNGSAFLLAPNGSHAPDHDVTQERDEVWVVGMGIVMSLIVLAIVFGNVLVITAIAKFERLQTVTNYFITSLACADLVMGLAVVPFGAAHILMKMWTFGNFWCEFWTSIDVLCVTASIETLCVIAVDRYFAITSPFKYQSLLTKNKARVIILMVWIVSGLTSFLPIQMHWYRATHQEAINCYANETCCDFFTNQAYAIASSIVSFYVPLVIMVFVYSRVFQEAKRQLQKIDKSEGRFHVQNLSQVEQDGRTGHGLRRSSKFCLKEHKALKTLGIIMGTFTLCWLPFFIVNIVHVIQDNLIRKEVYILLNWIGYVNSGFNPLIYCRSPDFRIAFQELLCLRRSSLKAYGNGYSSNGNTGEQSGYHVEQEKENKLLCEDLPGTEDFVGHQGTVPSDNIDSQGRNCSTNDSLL
Chain of Pregnane X receptor (O75469 whole entry, species assumed): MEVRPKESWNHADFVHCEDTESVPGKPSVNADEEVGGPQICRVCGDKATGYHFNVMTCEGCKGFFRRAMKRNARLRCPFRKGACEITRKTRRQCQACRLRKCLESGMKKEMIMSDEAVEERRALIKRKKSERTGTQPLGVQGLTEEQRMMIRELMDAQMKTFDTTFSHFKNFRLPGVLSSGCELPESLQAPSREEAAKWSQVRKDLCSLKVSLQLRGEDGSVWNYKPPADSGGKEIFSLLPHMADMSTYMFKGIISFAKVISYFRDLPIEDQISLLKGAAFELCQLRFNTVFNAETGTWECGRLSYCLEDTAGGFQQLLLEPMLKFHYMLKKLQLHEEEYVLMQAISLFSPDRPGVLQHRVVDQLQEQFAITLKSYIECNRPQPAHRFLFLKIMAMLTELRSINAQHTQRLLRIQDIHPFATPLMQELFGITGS
Chain of Serotonin Receptor 5HT1B (P28222 whole entry): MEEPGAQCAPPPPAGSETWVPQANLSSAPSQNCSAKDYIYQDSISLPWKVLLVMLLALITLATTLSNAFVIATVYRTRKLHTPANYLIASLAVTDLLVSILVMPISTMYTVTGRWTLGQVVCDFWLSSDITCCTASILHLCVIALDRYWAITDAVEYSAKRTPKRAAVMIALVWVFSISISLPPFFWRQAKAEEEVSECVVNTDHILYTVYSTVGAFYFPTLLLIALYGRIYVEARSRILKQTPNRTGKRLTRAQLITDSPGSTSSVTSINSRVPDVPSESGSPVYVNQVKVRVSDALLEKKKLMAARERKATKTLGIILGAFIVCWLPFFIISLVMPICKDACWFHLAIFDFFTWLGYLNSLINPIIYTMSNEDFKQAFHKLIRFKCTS
Chain of Monoamine Oxidase B (P27338 whole entry): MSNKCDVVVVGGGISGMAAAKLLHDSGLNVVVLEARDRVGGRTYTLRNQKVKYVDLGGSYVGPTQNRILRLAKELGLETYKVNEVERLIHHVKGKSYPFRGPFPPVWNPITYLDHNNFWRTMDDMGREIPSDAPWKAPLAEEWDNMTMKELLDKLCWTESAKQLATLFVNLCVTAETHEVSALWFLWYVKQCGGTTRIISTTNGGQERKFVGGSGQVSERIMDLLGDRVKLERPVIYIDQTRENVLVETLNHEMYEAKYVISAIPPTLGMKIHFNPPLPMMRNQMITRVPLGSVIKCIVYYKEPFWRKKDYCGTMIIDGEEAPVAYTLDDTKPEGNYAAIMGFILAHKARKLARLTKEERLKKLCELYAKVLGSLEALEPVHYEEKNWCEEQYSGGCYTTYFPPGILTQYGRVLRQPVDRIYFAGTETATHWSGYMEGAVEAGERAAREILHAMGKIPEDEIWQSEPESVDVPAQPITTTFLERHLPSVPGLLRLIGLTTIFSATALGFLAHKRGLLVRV
Chain of Serotonin Transporter (P31645 whole entry): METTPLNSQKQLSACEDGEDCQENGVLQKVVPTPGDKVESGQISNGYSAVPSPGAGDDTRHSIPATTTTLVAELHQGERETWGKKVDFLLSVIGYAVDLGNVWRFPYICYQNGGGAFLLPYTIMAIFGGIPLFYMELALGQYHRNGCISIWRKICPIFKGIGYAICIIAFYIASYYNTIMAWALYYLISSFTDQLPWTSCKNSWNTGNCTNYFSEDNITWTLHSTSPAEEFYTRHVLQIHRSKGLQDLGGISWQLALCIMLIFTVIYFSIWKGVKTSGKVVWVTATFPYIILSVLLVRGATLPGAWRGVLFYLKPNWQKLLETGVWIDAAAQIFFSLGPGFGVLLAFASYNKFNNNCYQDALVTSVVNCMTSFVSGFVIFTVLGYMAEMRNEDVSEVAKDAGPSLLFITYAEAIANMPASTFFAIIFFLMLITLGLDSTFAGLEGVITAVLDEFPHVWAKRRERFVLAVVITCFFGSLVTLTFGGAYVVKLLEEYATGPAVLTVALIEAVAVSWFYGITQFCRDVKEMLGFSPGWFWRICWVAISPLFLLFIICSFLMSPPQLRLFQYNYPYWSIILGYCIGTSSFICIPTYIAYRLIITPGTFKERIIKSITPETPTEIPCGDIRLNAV
Chain of Adenosine Receptor a2A (P29274 whole entry, species assumed): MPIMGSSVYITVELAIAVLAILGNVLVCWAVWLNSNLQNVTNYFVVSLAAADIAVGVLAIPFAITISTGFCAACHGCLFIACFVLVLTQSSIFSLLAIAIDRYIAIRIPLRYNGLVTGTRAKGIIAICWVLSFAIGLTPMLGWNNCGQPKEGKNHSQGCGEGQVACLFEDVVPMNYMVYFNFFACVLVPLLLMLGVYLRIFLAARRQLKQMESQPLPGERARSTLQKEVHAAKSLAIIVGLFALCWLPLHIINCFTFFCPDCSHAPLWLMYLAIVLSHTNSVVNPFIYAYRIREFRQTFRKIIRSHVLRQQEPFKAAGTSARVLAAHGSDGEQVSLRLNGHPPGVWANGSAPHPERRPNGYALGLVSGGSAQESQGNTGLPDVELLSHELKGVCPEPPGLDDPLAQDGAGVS
Chain of Dopamin Receptor D2 (P14416 whole entry): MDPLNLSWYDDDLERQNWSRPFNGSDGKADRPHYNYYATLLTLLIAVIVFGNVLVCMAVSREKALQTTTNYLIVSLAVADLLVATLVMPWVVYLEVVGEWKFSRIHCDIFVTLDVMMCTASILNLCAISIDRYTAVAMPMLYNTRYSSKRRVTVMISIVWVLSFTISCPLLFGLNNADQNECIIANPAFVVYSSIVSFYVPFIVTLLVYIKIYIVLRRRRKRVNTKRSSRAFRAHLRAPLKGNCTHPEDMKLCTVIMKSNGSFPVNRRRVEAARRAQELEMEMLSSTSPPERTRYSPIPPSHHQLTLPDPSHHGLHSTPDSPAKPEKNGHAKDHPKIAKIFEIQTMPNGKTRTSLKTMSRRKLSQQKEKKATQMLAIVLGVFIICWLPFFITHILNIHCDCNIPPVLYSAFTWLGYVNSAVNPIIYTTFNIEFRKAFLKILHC
Chain of Aurora B Kinase (Q96GD4 whole entry): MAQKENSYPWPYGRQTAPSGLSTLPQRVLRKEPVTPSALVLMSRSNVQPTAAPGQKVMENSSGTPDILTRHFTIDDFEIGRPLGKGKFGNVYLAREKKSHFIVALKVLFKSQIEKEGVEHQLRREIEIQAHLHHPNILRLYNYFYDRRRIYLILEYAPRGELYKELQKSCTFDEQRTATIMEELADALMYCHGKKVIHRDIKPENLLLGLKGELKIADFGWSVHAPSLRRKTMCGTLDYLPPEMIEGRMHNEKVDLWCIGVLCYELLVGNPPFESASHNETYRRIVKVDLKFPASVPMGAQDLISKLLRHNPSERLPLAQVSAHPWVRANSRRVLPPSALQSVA
Chain of Opioid Receptor m (P35372 whole entry): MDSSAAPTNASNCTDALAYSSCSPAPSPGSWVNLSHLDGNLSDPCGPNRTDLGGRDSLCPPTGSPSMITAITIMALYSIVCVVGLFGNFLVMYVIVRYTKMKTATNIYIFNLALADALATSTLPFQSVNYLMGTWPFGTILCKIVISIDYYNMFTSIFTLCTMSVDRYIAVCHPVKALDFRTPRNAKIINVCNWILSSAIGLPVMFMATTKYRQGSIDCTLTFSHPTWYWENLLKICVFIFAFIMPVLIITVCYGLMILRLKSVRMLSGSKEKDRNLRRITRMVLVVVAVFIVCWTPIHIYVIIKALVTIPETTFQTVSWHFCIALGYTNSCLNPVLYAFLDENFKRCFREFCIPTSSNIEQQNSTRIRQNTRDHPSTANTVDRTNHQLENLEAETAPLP
Chain of Cannabinoid receptor type 2 (P34972 whole entry): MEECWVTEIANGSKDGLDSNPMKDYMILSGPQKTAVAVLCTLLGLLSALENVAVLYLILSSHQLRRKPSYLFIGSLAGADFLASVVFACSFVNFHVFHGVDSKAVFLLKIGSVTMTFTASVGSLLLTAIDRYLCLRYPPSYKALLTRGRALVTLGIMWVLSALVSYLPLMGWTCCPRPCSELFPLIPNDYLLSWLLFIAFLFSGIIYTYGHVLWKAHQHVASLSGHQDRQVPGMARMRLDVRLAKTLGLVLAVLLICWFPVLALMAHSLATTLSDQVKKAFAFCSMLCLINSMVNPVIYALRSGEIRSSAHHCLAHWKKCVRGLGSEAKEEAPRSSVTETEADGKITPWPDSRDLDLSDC
Chain of Lymphocyte-specific Tyrosine Kinase (P06239 whole entry): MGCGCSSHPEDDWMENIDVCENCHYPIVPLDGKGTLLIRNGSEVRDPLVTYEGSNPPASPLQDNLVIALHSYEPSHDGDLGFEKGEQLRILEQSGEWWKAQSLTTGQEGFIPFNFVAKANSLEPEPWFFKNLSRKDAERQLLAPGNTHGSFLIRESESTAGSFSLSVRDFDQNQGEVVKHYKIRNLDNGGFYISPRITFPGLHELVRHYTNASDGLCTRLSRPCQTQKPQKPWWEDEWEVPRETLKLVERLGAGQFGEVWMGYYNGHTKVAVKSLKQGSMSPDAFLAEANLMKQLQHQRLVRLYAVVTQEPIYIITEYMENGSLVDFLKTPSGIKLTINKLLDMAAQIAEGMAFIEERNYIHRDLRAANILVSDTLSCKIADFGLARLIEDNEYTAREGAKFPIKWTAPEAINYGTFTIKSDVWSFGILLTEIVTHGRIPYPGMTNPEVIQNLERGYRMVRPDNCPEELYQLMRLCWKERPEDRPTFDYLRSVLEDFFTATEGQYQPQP

SMILES | IC50 (Adenosine Receptor a2A) [µM] | EC50 (Adrenergic Receptor b2 [1]) [µM] | IC50 (Adrenergic Receptor b2 [2]) [µM] | IC50 (Aurora B Kinase) [µM] | EC50 [3] [µM] | IC50 (Dopamin Receptor D2) [µM] | IC50 [4] [µM] | IC50 (Monoamine Oxidase B) [µM] | IC50 (Muscarinic Receptor M1) [µM] | IC50 [5] [µM] | EC50 (Opioid Receptor m) [µM] | EC50 (Pregnane X receptor) [µM] | IC50 (Serotonin Receptor 5HT1B) [µM] | IC50 (Serotonin Receptor 5HT2C) [µM] | EC50 (Serotonin Receptor 5HT3) [µM] | IC50 (Serotonin Transporter) [µM] | IC50 (Sodium Channel NaV 1.5) [µM] | IC50 ([5]; antagonist, read-out: pIC50 Nicotinic Ach Receptor A1 ANT (converted)) [µM]
COc1ncc(-c2ccc3c(Nc4cc(Oc5cc(F)cc(F)c5)cc(C(=O)O)c4)c(S(=O)(=O)NC4CC4)cnc3c2)c(OC)n1 [Compound 1] | 31.6 | 31.6 | 31.6 | 7.94 | 31.6 | 39.8 | 31.6 | 6.31 | 15.8 | 50.1 | 100 | 50.1 | 31.6 | 39.8 | 50.1 | 100 | 100 | –
COc1ncc(-c2ccc3c(Nc4cc(C(=O)O)cc(C5CCCC5)c4)c(S(=O)(=O)NC4CC4)cnc3c2)c(OC)n1 [Compound 2] | 31.6 | 31.6 | 31.6 | 31.6 | 31.6 | 100 | 31.6 | 15.8 | 15.8 | – | 100 | 50.1 | 31.6 | 39.8 | 39.8 | 100 | 39.8 | 15.8
